For this series the following is noted: 101.3 kPa, Liquid.

The structures appear in SMILES notation. ± gives the expanded uncertainty stated by the source.

By mass density is commonly meant the mass of a sample divided by its volume. The viscosity is the resistance of a fluid to flow.

Consider `CCCCN` [1-butanamine], for which the mass density (303.15 K) stood at 732.1 ± 1.2 kg/m3, the mass density (313.15 K) is on record as 722.9 ± 1.2 kg/m3 and the mass density (323.15 K) came to 712.7 ± 1.2 kg/m3. Moreover, the viscosity reads like this: (303.15 K) 0.46 ± 0.03 mPa·s; (313.15 K) 0.4 ± 0.02 mPa·s; (323.15 K) 0.36 ± 0.02 mPa·s.

With `CCCC(O)CC` (configuration not stated) [3-hexanol], the mass density by setting is: (303.15 K) 810.2 ± 1.2 kg/m3; (313.15 K) 801.7 ± 1.2 kg/m3; (323.15 K) 792.8 ± 1.2 kg/m3. The viscosity amounted to 3.52 ± 0.16 mPa·s (303.15 K), 2.34 ± 0.11 mPa·s (313.15 K) and 1.58 ± 0.08 mPa·s (323.15 K).

These data come from the NIST ThermoML archive (doi:10.1021/je0498053).
